Where two headings read alike, the source gives them in different places. Some results are limits rather than exact numbers.

The results in this text go back to US5965539A, “Inhibitors of prenyl transferases” (Univeristy of Pittsburgh, priority 1996, dated 1999).

Series [1] has as its system H-Ras processing. Description: Ras processing assay in H-RasF cells (NIH 3T3 transformed with oncogenic H-Ras-CVLS), immunoblot. It is filed as cell-based. The conditions noted are these: for IC50: Mus musculus, NIH3T3, whole cells. The method, then: (§1) H-RasF cells (45) were seeded on day 0 in 100 mm Dishes (costar) in Dulbecco's modified Eagles medium (GIBCO) and allowed to grow to 40-60% confluency. […] On day 3, cells were washed one time with ice cold PBS and were collected and lysed by incubation for 30-60 min on ice in lysis buffer (41). Lysates were cleared (14,000 rpm, 4° C., 15 min) and supernatants collected. Equal amounts of lysate were separated on a 12.5% SDS-PAGE, transfered to nitrocellulose, and a western blot performed using a anti-Ras antibody (Y13-238, ATCC) or anti-Rap1A antibody (Santa Cruz Biotechnology, Santa Cruz, Calif.). Antibody reactions were visualized using peroxidase-conjugated goat anti-rat IgG for Y13-238 and peroxidase-conjugated goat anti-rabbit IgG for Rap1A and an enhanced chemiluminescence detection system (ECL; Amersham Corp.)
(§2) H-Ras cells (45) and K-Ras4B Cells (32) were kind gifts from Dr. Channing Der and Dr. Adrienne Cox (University of North Carolina, Chapel Hill). Means of obtaining these cell lines will be easily recognized by the skilled practitioner. Cells were seeded on day 0 in 100 mm dishes in Dulbecco's modified Eagles medium supplemented with 10% calf serum and 1% penicillin-streptomycin. […] On day 3, cells were washed and lysed in lysis buffer containing 50 mM HEPES, pH 7.5, 10 mM NaCl, 1% TX-100, 10% glycerol, 5 mM MgCl2, 1 mM EGTA, 25 μg/ml leupeptin, 2 mM PMSF, 2 mM Na3 VO4, 1 mg/ml soybean trypsin inhibitor, 10 μg/ml aprotinin, 6.4 mg/ml Sigma-104® phosphatase substrate. Lysates were cleared (14,000 rpm, 4° C., 15 min) and equal amounts of protein were separated on a 12.5% SDS-PAGE, transferred to nitrocellulose, and immunoblotted using an anti-Ras antibody (Y13-259, ATCC) or an anti-RapIA antibody (SC-65, Santa Cruz Biotechnology, Santa Cruz, Calif.). Antibody reactions were visualized using either peroxidase-conjugated goat anti-rat 1 gG (for Y13-259), or peroxidase-conjugated goat anti-rabbit 1 gG (for Rap1A) and an enhanced chemiluminescence detection (ECL, Amersham Corp.), as described previously (41).

Series [2] deals with Rap1A processing. Nature of the series: Rap1A processing assay in NIH 3T3 cells overexpressing oncogenic H-Ras, immunoblot. It is filed as cell-based. The conditions noted are these: whole cells; for IC50: Mus musculus, NIH3T3. The method, then:
as §1, §2

Series [3] deals with K-Ras4B processing. Nature of the series: K-Ras4B processing assay in NIH 3T3 cells overexpressing oncogenic K-Ras4B. The format is cell-based. Particulars: for IC50: Mus musculus, NIH3T3, whole cells. The source says:
H-Ras cells (45) and K-Ras4B Cells (32) were kind gifts from Dr. Channing Der and Dr. Adrienne Cox (University of North Carolina, Chapel Hill). Means of obtaining these cell lines will be easily recognized by the skilled practitioner.

The subject of series [4] is oncogenic H-Ras activation of MAPK. Nature of the series: Oncogenic H-Ras activation of MAP kinase, immunoblot. The conditions noted are these: 0-30 μM, FIG. 20. The format is cell-based. The source says: (§3) Equal amounts of protein were separated on a 15% SDS-PAGE, transferred to nitrocellulose, and immunoblotted using an anti-MAP kinase antibody (erk2, monoclonal, UB1, Lake Placid, N.Y.). Antibody reactions were visualized using peroxidase-conjugated donkey anti-mouse IgG (Jackson ImmunoResearch Laboratories Inc., West Grove, Pa.) and an enhanced chemiluminescence detection system (ECL, Amersham Corp.)

For series [5], the system named is oncogenic K-Ras4B activation of MAP kinase. Description: Oncogenic K-Ras4B activation of MAP kinase, immunoblot. The format is cell-based.
From the text: as §3

Series [6] concerns K-Ras4B transformed NIH-3T3 cells. Nature of the series: Nude mouse xenograft, K-Ras4B transformed NIH-3T3 cells. It is filed as in vivo, nude mice. The conditions noted are these: for tumor size: two weeks. As to the method: In contrast, tumors from animals treated once daily with GGTI-286 (25 mg/kg or 50 mg/kg) grew to a size of 1600 mm^3 or 900 mm^3, respectively (FIG. 22).

For series [7], the target named is T1, GGTase I (Homo sapiens, UniProt P53609).
T1 construct: FTase and GGTase I activities from 60,000×g supernatants of human Burkitt lymphoma (Daudi) cells; endogenous in cells; host or cells: human Burkitt lymphoma (Daudi) cells, 60,000xg supernatant (partially purified)
T1 sequence (P53609 whole entry): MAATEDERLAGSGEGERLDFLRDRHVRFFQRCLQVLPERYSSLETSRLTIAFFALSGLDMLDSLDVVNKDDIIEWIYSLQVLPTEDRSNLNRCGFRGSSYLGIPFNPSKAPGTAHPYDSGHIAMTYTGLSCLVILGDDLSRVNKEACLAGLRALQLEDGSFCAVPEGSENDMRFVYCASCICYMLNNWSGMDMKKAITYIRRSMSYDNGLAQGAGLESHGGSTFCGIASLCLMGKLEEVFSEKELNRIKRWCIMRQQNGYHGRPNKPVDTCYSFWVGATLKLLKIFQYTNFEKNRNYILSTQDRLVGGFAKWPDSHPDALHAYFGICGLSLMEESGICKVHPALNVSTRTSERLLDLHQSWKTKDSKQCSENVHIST
Nature of the series: GGTase I activity assay: transfer of [3H]geranylgeranyl to recombinant H-Ras-CVLL, Daudi 60,000xg supernatant. It is filed as biochemical. The method, then:
FTase and GGTase I activities from 60,000×g supernatants of human Burkitt lymphoma (Daudi) cells (ATCC, Rockville, Md., USA) were assayed as described previously for FTase (41). Briefly, 100 μg of the supernatant was incubated in 50 mM Tris, pH 7.5, 50 μM ZnCl2, 20 mM KCl and 1 mM dithiothreitol (DTT). The reaction was incubated at […] for 30 min with recombinant Ha-Ras-CVLS (11 μM) and [^3 H]FPP (625 nM; 16.3 Ci/mmol) for FTase, and recombinant Ha-Ras-CVLL (5 μM) and [^3 H]geranylgeranylpyrophosphate (525 nM; 19.0 Ci/mmol) for GGTase I. The peptidomimetics were mixed with FTase and GGTase before adding to the reaction mixture.
Human Burkitt lymphoma (Daudi) cells (ATCC, Rockville, Md.) were grown in suspension in RPMI 1640 medium containing 10% fetal bovine serum (FBS) and 1% Pen-Strep in a humidified 10% CO2 incubator at 37° C. The cells were harvested and sonicated in 50 mM Tris, pH 7.5, 1 mM EDTA, 1 mM EGTA, 25 μg/ml leupeptin, 1 mM phenylmethylsulfonyl fluoride. Homogenates were then spun at 12,000×g and the resulting supernatant further spun at 60,000×g. The supernatant was assayed for both FTase and GGTase I. Briefly, 100 μg of the supernatants was incubated in 50 mM Tris, pH 7.5, 50 μM ZnCl2, 20 mM KCl, 3 mM MgCl2 and 1 mM DTT. For FTase assays, the reaction was incubated at 37° C. for 30 minutes with recombinant H-Ras-CVLS (11 μM) and [^3 H] FPP (625 nM; 16.3 Ci/mmol). For GGTase assays, the reaction was also incubated for 30 minutes at 37° C. but with recombinant H-Ras-CVLL (5 μM) and [^3 H] GGPP (525 nM; 19.0 Ci/mmol). The reaction was stopped and passed through glass fiber filters to separate free and incorporated label. For inhibition studies, the peptidomimetics were premixed with FTase or GGTase I prior to adding the remainder of the reaction mixture. Recombinant H-Ras-CVLS was prepared as described previously (26) from bacteria (31). Recombinant H-Ras-CVLL was prepared from bacteria (32).
FTase and GGTase I activities from 60,000×g supernatants of human Burkitt lymphoma (Daudi) cells (ATCC, Rockville, Md.) were assayed exactly as described previously for FTase (41). Inhibition studies were performed by determining the ability of Ras CAAX peptidomimetics to inhibit the transfer of [^3 H]-farnesyl and [^3 H]-geranylgeranyl from [^3 H]FPP and [^3 H]GGPP to H-ras-CVLS and H-Ras-CVLL, respectively (41).

Series [8] has as its system Calu-1 human lung carcinoma. The source says:
(§4) Calu-1 (Panel A) and NCI-H810 cells (Panel B) were purchased from ATCC and grown in McCoy's 5A medium in 10% FBS (Fetal Bovine Serum) and RPMI 1640 in 10% FBS, respectively. The cells were harvested, resuspended in PBS and injected s.c. into the right and left flank of 8 week old female nude mice (10^7 cells/flank). Nude mice (Harlan Sprague Dawley, Indianapolis, Ind.) were maintained in accordance with the Institutional Animal Care and Use Committee (IACUC) procedures and guidelines. On day 32 after s.c. implantation of tumors, animals were dosed i.p. with 0.2 ml once daily for 36 days. […] The tumor volumes were determined by measuring the length (l) and the width (w) and calculating the volume (V=(l)×(w)^2 /2). Data are presented as the average volume of eight tumors in each group for each cell line. Statistical significance between control and treated groups were evaluated by using student t test (*P<0.05).
(§5) In this model, tumors from two human lung carcinoma cell lines are implanted subcutaneously. One of these (Calu-1) harbors a K-Ras oncogenic mutation and has a deletion of the tumor suppressor gene p53. The other human lung carcinoma ([…]) has no Ras mutations.

The subject of series [9] is NCI-H810 human lung carcinoma. Particulars: 50 mg/kg once daily, 14 days of treatment.
From the text: as §4

Series [10] relates to H-RasF transformed NIH 3T3 cells. The method, then: (§6) A. Antitumor efficacy was carried out as described in FIG. 3 except that animals were randomly assigned to four groups each of 4 mice each (2 tumors per mouse). […] B. Ras processing was carried out 5 hours after the last treatement on day 17. Tumors were extracted from the animals, tissumized, and lysed in lysis buffer as described in FIG. 1. Lysates (25 μg) were electrophoresed on a 12.5% SDS-PAGE and immunoblotted with anti-Ras antibody Y13-238 as described previously. The blots were then reprobed with anti-Rap1A antibody (Santa Cruze Biotechnologies, Santa Cruz, Calif.).
(§7) The tumor sizes at the end of 17 days were 2490 mm^3 for saline, 1793 mm^3 for 10 mg/kg, 1226 mm^3 for 50 mg/kg and 624 mm^3 for 100 mg/kg treated animals. […] Tumors from control animals contained only fully processed Ras which migrates faster in SDS-PAGE gels (FIG. 11B). […] Thus, the extent of tumor growth inhibition correlated with the extent of inhibition of Ras processing.

The subject of series [11] is Rap1A processing. The conditions noted are these: 100 mg/kg. The method, then: as §6, §7
For series [12], the system named is Ras processing. The conditions noted are these: 10 to 100 mg/kg, 5 hrs after last injection. As to the method:
as §6, §7

From the text in series [13]: as §5
Series [14] concerns Raf-transformed NIH 3T3 cells. Particulars: 50 mg/kg once daily.

`COC(=O)[C@H](CC(C)C)NC(=O)c1ccc(NC[C@@H](N)CS)cc1-c1ccccc1.Cl` [GGTI-286, 4-[2(R)-amino-3-mercaptopropyl]amino-2-phenylbenzoyl-(S)-leucine methyl ester hydrochloride]: in [1] (FIG. 18), the “concentration needed for accumulation of unprocessed H-Ras” value is at least 30 µM. For the same compound, the IC50 in series [1] (Table 5, read-out: In Vivo Processing IC50 H-Ras) is above 30000 nM; in [1] (read-out: H-Ras processing IC50), above 30000 nM; in series [2] (Table 5, read-out: In Vivo Processing IC50 Rap1A), 2000 nM; in series [2] (read-out: Rap1A processing IC50), 2000 nM; in series [3] (Table 5, read-out: In Vivo Processing IC50 K-Ras), 2000 nM; in [3] (read-out: K-Ras4B processing IC50), 2000 nM. Further, the IC50 in series [5] (read-out: IC50, inhibition of K-Ras4B MAP kinase activation) amounted to 1000 nM. In addition, the “selectivity for inhibition of geranylgeranylation over farnesylation processing” value in series [2] is “more than 15 fold”. Besides, in [3], the “concentrations inhibiting K-Ras4B processing that had no effect on processing of farnesylated H-Ras” value lay within 1 to 3 µM. Besides, in [4], the “inhibition of oncogenic H-Ras activation of MAP kinase” value is on record as “inhibited only slightly”. The “concentration of complete block of K-Ras4B MAP kinase activation” value in series [5] stood at 10 µM. Moreover, the figures for the “inhibition of tumor growth” value in series [6] (25 mg/kg once daily) and in series [6] (50 mg/kg once daily) were 50% and 70%, respectively. Further, the tumor size was 1600 mm^3 in [6] (25 mg/kg once daily) and 900 mm^3 in series [6] (50 mg/kg once daily).

With `CSCC[C@H](NC(=O)c1ccc(NC[C@@H](N)CS)cc1-c1ccccc1)C(=O)O` [FTI-276, 4-N-[2(R)-Amino-3-mercaptopropyl]amino-2-phenylbenzoyl methionine], the IC50 was 57 nM in series [7] (Table 1, read-out: GGTase I IC50); 50 nM in [7] (Table 5, read-out: In Vitro IC50 GGTase I); 50 nM in series [7] (read-out: GGTase I IC50). Also, the average tumor size in series [8] (50 mg/kg i.p. once daily, 64 days from tumor implantation) is listed as 113 mm^3; in series [9] it was 815 mm^3. In [8] (50 mg/kg once daily), the “tumor growth of Calu-1” value was “essentially blocked tumor growth”. Moreover, the “tumor size at the end of 17 days” value was 1793 mm^3 in series [10] (10 mg/kg), 1226 mm^3 in series [10] (50 mg/kg) and 624 mm^3 in series [10] (100 mg/kg). In series [10] (50 mg/kg once daily), the “tumor growth of H-RasF transformed NIH 3T3 cells” value is listed as “inhibited tumor growth”. Further, the “Rap1A processing in tumors” value in series [11] is “did not inhibit Rap1A processing”. In [12], the “Ras processing in tumors” value is on record as “progressive accumulation of unprocessed Ras”. The weight loss result in [13] (50 mg/kg once daily for 36 days) is listed as “no weight loss was observed”. Further, the toxicity entry in series [13] (dose escalated to 180 mg/kg once daily) is “lack of toxicity”. In [14], the “growth of Raf-transformed NIH 3T3 cells” value was “had no effect”.
